# Measured values reported in patent US6737383B1, “Herbicidal oxadiazolidines” (priority 1999, dated 2004).
# Experiments:
# [1] = system: pigweed; assay: Test B pre/postemergence pigweed; assay type: in vivo, Amaranthus retroflexus
# In short: (§1)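 Herbicidal effect was estimated by eye on a ten-point control scale after plants spent twelve to sixteen days in a greenhouse following soil or foliar treatment. Foliar sprays targeted plants at one to four leaves; all doses were formulated in a non-phytotoxic solvent with surfactant.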
# [2] = system: cocklebur; assay: Test B pre/postemergence cocklebur; assay type: in vivo, Xanthium strumarium
# In short: as §1
# [3] = system: surinam grass; assay: Test B pre/postemergence surinam grass; assay type: in vivo, Brachiaria decumbens
# In short: as §1
# [4] = system: soybean; assay: Test B pre/postemergence soybean; assay type: in vivo, Glycine max
# In short: as §1
# [5] = system: morningglory; assay: Test B pre/postemergence morningglory; assay type: in vivo, Ipomoea hederacea
# In short: as §1
# [6] = system: corn; assay: Test B pre/postemergence corn; assay type: in vivo, Zea mays
# In short: as §1
# [7] = system: purple nutsedge; assay: Test B pre/postemergence purple nutsedge; assay type: in vivo, Cyperus rotundus
# In short: as §1
# [8] = system: sugar beet; assay: Test B pre/postemergence sugar beet; assay type: in vivo, Beta vulgaris
# In short: as §1
# [9] = system: blackgrass; assay: Test B pre/postemergence blackgrass; assay type: in vivo, Alopecurus myosuroides
# In short: as §1
# [10] = system: wild oat; assay: Test B pre/postemergence wild oat; assay type: in vivo, Avena fatua
# In short: as §1
# [11] = system: rape; assay: Test B pre/postemergence rape; assay type: in vivo, Brassica napus
# In short: as §1
# [12] = system: bedstraw; assay: Test B pre/postemergence bedstraw; assay type: in vivo, Galium aparine
# In short: as §1
# [13] = system: giant foxtail; assay: Test B pre/postemergence giant foxtail; assay type: in vivo, Setaria faberii
# In short: as §1
# [14] = system: crabgrass; assay: Test B pre/postemergence crabgrass; assay type: in vivo, Digitaria sanguinalis
# In short: as §1
# [15] = system: velvetleaf; assay: Test B pre/postemergence velvetleaf; assay type: in vivo, Abutilon theophrasti
# In short: as §1
# [16] = system: wheat; assay: Test B pre/postemergence wheat; assay type: in vivo, Triticum aestivum
# In short: as §1
# [17] = Postemergence, Rate 31 g/ha, visual rating, scale 0 to 10 (0 no effect, 10 complete control)
# [18] = Postemergence, Rate 62 g/ha, scale of 0 to 10, 0 is no effect, 10 is complete control
# [19] = Postemergence, Rate 125 g/ha, scale 0 to 10, 0 is no effect, 10 is complete control
# [20] = Preemergence, Rate 62 g/ha, scale 0 to 10 (0 no effect, 10 complete control)
# [21] = Preemergence, Rate 125 g/ha, scale 0 to 10, 0 is no effect, 10 is complete control
# [22] = Rate 250 g/ha, Postemergence, scale of 0 to 10 where 0 is no effect and 10 is complete control
# [23] = Preemergence, Rate 31 g/ha, visual rating, scale 0 to 10 (0 no effect, 10 complete control)
structure (smiles),measurement,setting,value
CC(C)N(C(=O)n1oc(=O)n(C[Si](C)(C)C)c1=O)c1ccc(Cl)cc1 [Compound 548],Redroot pigweed plant response rating,[1]; [17],0
same,Redroot pigweed plant response rating,[1]; [18],0
same,Redroot pigweed plant response rating,[1]; [19],0
same,Redroot pigweed plant response rating,[1]; [20],0
same,Redroot pigweed plant response rating,[1]; [21],0
same,Redroot pigweed plant response rating (0 to 10 scale),"[1]; Preemergence, Rate 250 g/ha",2
same,"Plant response rating, Redroot pigweed",[1]; [22],2
same,Cocklebur plant response rating,[2]; [17],0
same,Cocklebur plant response rating,[2]; [18],0
same,Cocklebur plant response rating,[2]; [19],0
same,Cocklebur plant response rating,[2]; [23],0
same,Cocklebur plant response rating,[2]; [20],0
same,Cocklebur plant response rating,[2]; [21],0
same,Cocklebur plant response rating (0 to 10 scale),"[2]; Preemergence, Rate 250 g/ha",0
same,"Plant response rating, Cocklebur",[2]; [22],0
same,B. signalgrass plant response rating,[3]; [17],0
same,B. signalgrass plant response rating,[3]; [18],0
same,B. signalgrass plant response rating,[3]; [19],0
same,B. signalgrass plant response rating,[3]; [23],0
same,B. signalgrass plant response rating,[3]; [20],0
same,B. signalgrass plant response rating,[3]; [21],2
same,"B. signalgrass plant response rating (0 to 10 scale, 0 is no effect, 10 is complete control)","[3]; Preemergence, Rate 250 g/ha",3
same,"Plant response rating, B. signalgrass",[3]; [22],0
same,Soybean plant response rating,[4]; [17],1
same,Soybean plant response rating,[4]; [18],2
same,Soybean plant response rating,[4]; [19],2
same,Soybean plant response rating,[4]; [20],0
same,Soybean plant response rating,[4]; [21],0
same,Soybean plant response rating (0 to 10 scale),"[4]; Preemergence, Rate 250 g/ha",0
same,"Plant response rating, Soybean",[4]; [22],2
same,Morningglory plant response rating,[5]; [17],1
same,Morningglory plant response rating,[5]; [18],5
same,Morningglory plant response rating,[5]; [20],0
same,Morningglory plant response rating,[5]; [21],0
same,Morningglory plant response rating (0 to 10 scale),"[5]; Preemergence, Rate 250 g/ha",0
same,"Plant response rating, Morningglory",[5]; [22],8
same,Corn plant response rating,[6]; [17],0
same,Corn plant response rating,[6]; [18],0
same,Corn plant response rating,[6]; [19],0
same,Corn plant response rating,[6]; [23],0
same,Corn plant response rating,[6]; [20],0
same,Corn plant response rating,[6]; [21],0
same,Corn plant response rating (0 to 10 scale),"[6]; Preemergence, Rate 250 g/ha",0
same,"Plant response rating, Corn",[6]; [22],0
same,Nutsedge plant response rating,[7]; [17],0
same,Nutsedge plant response rating,[7]; [19],0
same,Nutsedge plant response rating,[7]; [20],0
same,Nutsedge plant response rating,[7]; [21],0
same,Nutsedge plant response rating (0 to 10 scale),"[7]; Preemergence, Rate 250 g/ha",0
same,"Plant response rating, Nutsedge",[7]; [22],0
same,Sugarbeets plant response rating,[8]; [17],0
same,Sugarbeets plant response rating,[8]; [18],0
same,Sugarbeets plant response rating,[8]; [19],0
same,Sugarbeets plant response rating,[8]; [20],0
same,Sugarbeets plant response rating,[8]; [21],0
same,Sugarbeets plant response rating (0 to 10 scale),"[8]; Preemergence, Rate 250 g/ha",2
same,"Plant response rating, Sugarbeets",[8]; [22],3
same,Blackgrass plant response rating,[9]; [17],0
same,Blackgrass plant response rating,[9]; [18],0
same,Blackgrass plant response rating,[9]; [19],0
same,Blackgrass plant response rating,[9]; [23],0
same,Blackgrass plant response rating,[9]; [20],0
same,Blackgrass plant response rating,[9]; [21],3
same,Blackgrass plant response rating (0 to 10 scale),"[9]; Preemergence, Rate 250 g/ha",3
same,"Plant response rating, Blackgrass",[9]; [22],3
same,Wild oats plant response rating,[10]; [17],0
same,Wild oats plant response rating,[10]; [18],0
same,Wild oats plant response rating,[10]; [19],0
same,Wild oats plant response rating,[10]; [20],0
same,Wild oats plant response rating,[10]; [21],0
same,Wild oats plant response rating (0 to 10 scale),"[10]; Preemergence, Rate 250 g/ha",2
same,"Plant response rating, Wild oats",[10]; [22],0
same,Rape plant response rating,[11]; [17],0
same,Rape plant response rating,[11]; [19],0
same,Rape plant response rating,[11]; [20],0
same,Rape plant response rating,[11]; [21],0
same,Rape plant response rating (0 to 10 scale),"[11]; Preemergence, Rate 250 g/ha",2
same,"Plant response rating, Rape",[11]; [22],7
same,Bedstraw plant response rating,[12]; [17],0
same,Bedstraw plant response rating,[12]; [18],0
same,Bedstraw plant response rating,[12]; [19],4
same,Bedstraw plant response rating,[12]; [23],9
same,Bedstraw plant response rating,[12]; [20],8
same,Bedstraw plant response rating,[12]; [21],10
same,Bedstraw plant response rating (0 to 10 scale),"[12]; Preemergence, Rate 250 g/ha",10
same,"Plant response rating, Bedstraw",[12]; [22],9
same,Giant foxtail plant response rating,[13]; [17],0
same,Giant foxtail plant response rating,[13]; [18],0
same,Giant foxtail plant response rating,[13]; [19],0
same,Giant foxtail plant response rating,[13]; [23],9
same,Giant foxtail plant response rating,[13]; [20],9
same,Giant foxtail plant response rating,[13]; [21],9
same,Giant foxtail plant response rating (0 to 10 scale),"[13]; Preemergence, Rate 250 g/ha",10
same,"Plant response rating, Giant foxtail",[13]; [22],0
same,Crabgrass plant response rating,[14]; [17],0
same,Crabgrass plant response rating,[14]; [19],5
same,Crabgrass plant response rating,[14]; [23],4
same,Crabgrass plant response rating,[14]; [20],9
same,Crabgrass plant response rating,[14]; [21],9
same,Crabgrass plant response rating (0 to 10 scale),"[14]; Preemergence, Rate 250 g/ha",10
same,Velvetleaf plant response rating,[15]; [17],0
same,Velvetleaf plant response rating,[15]; [18],0
same,Velvetleaf plant response rating,[15]; [19],0
same,Velvetleaf plant response rating,[15]; [20],0
same,Velvetleaf plant response rating,[15]; [21],0
same,Velvetleaf plant response rating (0 to 10 scale),"[15]; Preemergence, Rate 250 g/ha",0
same,"Plant response rating, Velvetleaf",[15]; [22],0
same,Wheat plant response rating,[16]; [17],0
same,Wheat plant response rating,[16]; [18],0
same,Wheat plant response rating,[16]; [19],0
same,Wheat plant response rating,[16]; [20],0
same,Wheat plant response rating,[16]; [21],0
same,Wheat plant response rating (0 to 10 scale),"[16]; Preemergence, Rate 250 g/ha",0
same,"Plant response rating, Wheat",[16]; [22],2
